Reference: patent US8415469B2, “Compounds and methods for kinase modulation, and indications therefor” (Plexxikon Inc., priority 2005, dated 2013)

Tests used:
B-Raf V600E = molecular target: T1, B-Raf V600E (Homo sapiens, UniProt P15056, V600E); experiment: AlphaScreen kinase assay, B-Raf V600E; assay type: biochemical; conditions: read-out: IC50, activity toward kinase B-Raf V600E
T1 construct: P4254. pFastBacBD-CDC37 BRAF D437-K722-X, V600E; His6 with pFastBac HT leader (TEV site) (N); made in house; host or cells: Sf9 (baculovirus; chaperone CDC37 co-expressed)
T1 sequence (P15056 with tags, fused parts or gaps V600E): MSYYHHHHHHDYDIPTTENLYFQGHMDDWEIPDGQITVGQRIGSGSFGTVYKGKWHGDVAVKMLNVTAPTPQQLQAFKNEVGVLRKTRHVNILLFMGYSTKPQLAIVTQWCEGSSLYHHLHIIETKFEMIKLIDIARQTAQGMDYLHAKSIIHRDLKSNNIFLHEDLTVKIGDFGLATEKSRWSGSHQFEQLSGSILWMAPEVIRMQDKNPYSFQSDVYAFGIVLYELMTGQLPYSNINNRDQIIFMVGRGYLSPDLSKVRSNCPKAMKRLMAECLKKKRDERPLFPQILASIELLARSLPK

FGFR1 = molecular target: T2, FGFR1 (Homo sapiens, UniProt P11362, C488A/C584S); experiment: AlphaScreen kinase assay, FGFR1; assay type: biochemical; conditions: read-out: IC50, activity toward kinase FGFR
T2 construct: P1351.pET N6 BI-PTP FGFR A458-E765-X C488A, C584S; made in house; host or cells: E. coli (PTP1B co-expressed)
T2 sequence (P11362 458-765 C488A/C584S): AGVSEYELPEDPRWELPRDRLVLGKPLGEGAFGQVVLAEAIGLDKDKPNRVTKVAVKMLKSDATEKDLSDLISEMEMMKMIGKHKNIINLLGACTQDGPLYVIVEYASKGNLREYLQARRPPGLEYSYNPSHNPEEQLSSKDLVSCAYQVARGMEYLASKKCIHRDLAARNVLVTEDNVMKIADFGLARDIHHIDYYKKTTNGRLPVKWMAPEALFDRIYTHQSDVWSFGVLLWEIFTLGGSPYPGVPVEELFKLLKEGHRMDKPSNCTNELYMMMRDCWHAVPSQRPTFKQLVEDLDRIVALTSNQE

| IC50 (B-Raf V600E) | IC50 (FGFR1) | Compound |
| --- | --- | --- |
| ≤ 10 µM |  | COc1ccc(Cc2nc(-c3ccnc4[nH]ccc34)no2)cc1 [Compound P-0696] |
|  | ≤ 10 µM | O=C(c1c(F)ccc(OCc2ccccc2)c1F)c1c[nH]c2ncc(-c3cccnc3)cc12 [Compound P-1467, (3-Benzyloxy-2,6-difluoro-phenyl)-(5-pyridin-3-yl-1H-pyrrolo[2,3-b]pyridin-3-yl)-methanone] |
| ≤ 10 µM |  | OCc1cccc(-c2ccnc3[nH]cc(Sc4ccc(Cl)cc4)c23)c1 [Compound P-0388] |
| ≤ 10 µM |  | Oc1ccc(F)c(C(O)c2c[nH]c3ncc(Br)cc23)c1F (stereo not shown) [Compound P-1180, 3-[(5-Bromo-1H-pyrrolo[2,3-b]pyridin-3-yl)-hydroxy-methyl]-2,4-difluoro-phenol] |
| ≤ 10 µM |  | Fc1cccc(Nc2cnc3[nH]ccc3c2)c1 [Compound P-1035] |
|  | ≤ 10 µM | COc1cnc2[nH]cc(C(=O)c3c(F)ccc(OCc4ccccc4)c3F)c2c1 [Compound P-1597, (3-Benzyloxy-2,6-difluoro-phenyl)-(5-methoxy-1H-pyrrolo[2,3-b]pyridin-3-yl)-methanone] |
|  | ≤ 10 µM | Fc1cc(F)cc(Cc2c[nH]c3ncccc23)c1 [Compound P-0374] |
| ≤ 10 µM |  | CCC(C)c1ccc(Nc2cnc3[nH]ccc3c2)cc1 (stereo not shown) [Compound P-1128] |
|  | ≤ 10 µM | COc1cccc(Cc2c[nH]c3nccc(-c4cccc(OC)c4)c23)c1 [Compound P-0979] |
|  | ≤ 10 µM | COCCOc1ccc(F)c(C(=O)c2c[nH]c3ncc(Br)cc23)c1F [Compound P-1453, (5-Bromo-1H-pyrrolo[2,3-b]pyridin-3-yl)-[2,6-difluoro-3-(2-methoxy-ethoxy)-phenyl]-methanone] |
| ≤ 10 µM |  | c1ccc(Cc2nc(-c3ccnc4[nH]ccc34)no2)cc1 [Compound P-0381] |
|  | ≤ 10 µM | c1ccc2cc(Cc3c[nH]c4ncccc34)ccc2c1 [Compound P-0575] |
| ≤ 10 µM |  | CC(C)Oc1cccc(Nc2cnc3[nH]ccc3c2)c1 [Compound P-1049] |
| ≤ 10 µM |  | CC(C)(C)OC(=O)Nc1ccc(Cl)c(C(O)c2c[nH]c3ncccc23)c1F (stereo not shown) [Compound P-1140] |
| ≤ 10 µM |  | O=C(c1c(F)ccc(NS(=O)(=O)c2ccc(-c3cnco3)cc2)c1F)c1c[nH]c2ncc(Cl)cc12 [Compound P-1843, N-[3-(5-Chloro-1H-pyrrolo[2,3-b]pyridine-3-carbonyl)-2,4-difluoro-phenyl]-4-oxazol-5-yl-benzenesulfonamide] |
|  | ≤ 10 µM | O=C(c1c[nH]c2ncc(Br)cc12)c1cccc2c1ccn2S(=O)(=O)c1ccccc1 [Compound P-1524, (1-Benzenesulfonyl-1H-indol-4-yl)(5-bromo-1H-pyrrolo[2,3-b]pyridin-3-yl)-methanone] |
| ≤ 10 µM |  | c1cnc2[nH]cc(-c3noc(CCC4CCCC4)n3)c2c1 [Compound P-0833] |
| ≤ 10 µM |  | O=C(Nc1ccc(Cc2c[nH]c3ncccc23)cc1)c1ccccc1 [Compound P-0803] |
|  | ≤ 10 µM | Cc1cc(Cc2c[nH]c3ncccc23)ccc1F [Compound P-0510] |
| ≤ 10 µM |  | COC(c1ccc(N(Cc2ccc(Cl)cc2)C(=O)OC(C)(C)C)nc1)c1c[nH]c2ncccc12 (stereo not shown) [Compound P-1183] |
|  | ≤ 10 µM | COc1ccc([N+](=O)[O-])cc1C(OC)c1c[nH]c2ncc(Br)cc12 (stereo not shown) [Compound P-1287] |
| ≤ 10 µM |  | Fc1cc(F)cc(-c2ccnc3[nH]cc(Sc4ccccc4)c23)c1 [Compound P-0311] |
|  | ≤ 10 µM | COc1cccc(C(=O)c2c[nH]c3ncc(-c4cc(F)cc(F)c4)cc23)c1 [Compound P-0474] |
|  | ≤ 10 µM | CCCNS(=O)(=O)c1ccc(NCC)c(C(=O)c2c[nH]c3ncccc23)c1F [Compound P-1273] |
| ≤ 10 µM |  | Fc1ccc(Nc2cnc3[nH]ccc3c2)cc1 [Compound P-1091] |
| ≤ 10 µM |  | CCCCN(c1ccc(F)c(Cc2c[nH]c3ncc(-c4cccnc4)cc23)c1F)S(=O)(=O)c1ccc(C(F)(F)F)cc1 [Compound P-1444] |

| IC50 (B-Raf V600E) | IC50 (FGFR1) | Compound |
| --- | --- | --- |
| ≤ 10 µM |  | Cc1nc2ccc(Nc3cnc4[nH]ccc4c3)cc2s1 [Compound P-1030] |
|  | ≤ 10 µM | O=C(c1c(F)ccc(Cl)c1F)c1c[nH]c2ncccc12 [Compound P-1272] |
|  | ≤ 10 µM | O=C(c1c(F)ccc([N+](=O)[O-])c1F)c1c[nH]c2ncc(Br)cc12 [Compound P-1182] |
| ≤ 10 µM |  | Cn1nc(C(C)(C)C)cc1-c1nc(-c2c[nH]c3ncccc23)no1 [Compound P-1177] |
| ≤ 10 µM |  | FC(F)(F)c1ccc(-c2c[nH]c3ncccc23)cc1 [Compound P-1179] |
|  | ≤ 10 µM | COCCOc1ccc(F)c(Cc2c[nH]c3ncc(Br)cc23)c1F [Compound P-1454, 5-Bromo-3-[2,6-difluoro-3-(2-methoxy-ethoxy)-benzyl]-1H-pyrrolo[2,3-b]pyridine] |
| ≤ 10 µM |  | COC(=O)c1cccc(C#Cc2c[nH]c3ncc(-c4ccc(OC)c(OC)c4)cc23)c1 [Compound P-0646] |
| ≤ 10 µM |  | Cc1cc(-c2nc(-c3ccnc4[nH]ccc34)no2)n(C(C)(C)C)n1 [Compound P-0893] |
| ≤ 10 µM |  | CN(C)S(=O)(=O)N(C)c1ccc(F)c(C(=O)c2c[nH]c3ncc(Cl)cc23)c1F [Compound P-1666] |
| ≤ 10 µM |  | COc1ccc(OC)c(S(=O)(=O)Nc2ccc(F)c(C(=O)c3c[nH]c4ncccc34)c2F)c1 [Compound P-1131, N-[2,4-Difluoro-3-(1H-pyrrolo[2,3-b]pyridine-3-carbonyl)-phenyl]-2,5-dimethoxy-benzenesulfonamide] |
| ≤ 10 µM |  | COc1cnc2[nH]cc(C(O)c3c(F)ccc(NS(=O)(=O)c4ccc(C(F)(F)F)cc4)c3F)c2c1 (stereo not shown) [Compound P-1540] |
| ≤ 10 µM |  | CCCS(=O)(=O)Nc1cccc(C(O)c2c[nH]c3ncc(Br)cc23)c1C (stereo not shown) [Compound P-1607] |
| ≤ 10 µM |  | O=[N+]([O-])c1cccc(Sc2c[nH]c3nccc(-c4cc(F)cc(F)c4)c23)c1 [Compound P-0816] |
| ≤ 10 µM |  | N#Cc1ccc(CCc2c[nH]c3ncccc23)cc1 [Compound P-1199] |
| ≤ 10 µM |  | FC(F)(F)c1cccc(-c2ccnc3[nH]cc(Sc4cccs4)c23)c1 [Compound P-0651] |
| ≤ 10 µM |  | O=C(c1cc([N+](=O)[O-])ccc1Cl)c1c[nH]c2ncccc12 [Compound P-0592] |
| ≤ 10 µM |  | COc1ccc(-c2c[nH]c3ncccc23)cc1OCc1ccccc1 [Compound P-0886] |
| ≤ 10 µM |  | CC(C)(C)OC(=O)Nc1ccc(-c2c[nH]c3ncccc23)cc1 [Compound P-1195] |
| ≤ 10 µM |  | COC(c1ccc(Br)cc1)c1c[nH]c2ncccc12 (stereo not shown) [Compound P-0552] |
| ≤ 10 µM |  | CCC(C)Cc1c[nH]c2ncccc12 (stereo not shown) [Compound P-0386] |
| ≤ 10 µM |  | Cn1ccc2cc(-c3c[nH]c4ncccc34)ccc21 [Compound P-0713] |
| ≤ 10 µM |  | CC(C)(C)c1ccc(OCc2nc(-c3ccnc4[nH]ccc34)no2)cc1 [Compound P-1187] |
| ≤ 10 µM |  | COc1ccccc1-c1c[nH]c2ncccc12 [Compound P-0358] |
| ≤ 10 µM |  | Cc1cc(C)cc(-c2ccnc3[nH]cc(Sc4cccs4)c23)c1 [Compound P-0255] |
| ≤ 10 µM |  | COc1ccc(S(=O)(=O)Nc2ccc(F)c(C(=O)c3c[nH]c4ncccc34)c2F)cc1OC [Compound P-1090, N-[2,4-Difluoro-3-(1H-pyrrolo[2,3-b]pyridine-3-carbonyl)-phenyl]-3,4-dimethoxy-benzenesulfonamide] |
| ≤ 10 µM |  | OCc1cccc(-c2ccnc3[nH]cc(Sc4cc(Cl)cc(Cl)c4)c23)c1 [Compound P-0600] |
